# Values of other authors as cited in patent US20090291104A1 (Florida Atlantic University, priority 2005, published 2009).
# Test system: K+ channels
# Conditions: cited from earlier work
substance,measurement,value
N--DPCYEVCLQHTGNV-KACEEACQ (NDPCYEVCLQHTGNVKACEEACQ; Opisthacanthus madagascarienses) [OmTx3],rank as K+ channel blocker within the Om-toxin set,best blocker of the Om-toxin set
